Measured values taken from article PMC11876601 (Molecular Systems Biology, 2025).

Assays:
ACVR1B = test system: ACVR1B; design: method as in Klaeger et al. (2017); details: lysate 4 cell line mix (Colo205, K-562, MV-4-11, and SK-N-BE(2)), Kinobeads y, ref Klaeger et al. (2017); cited from earlier work
PIK3C2A = PIK3C2A (Homo sapiens, UniProt O00443); assay: biochemical
Method: (§1) This was followed by incubation with Kinobeads ε (17.5 µl of settled beads) for 30 min at 4 °C to enrich kinases. […] Enriched proteins were reduced with 50 mM DTT in 8 M urea, 40 mM Tris-HCl, pH 7.4 for 30 min at room temperature, and alkylated with 55 mM chloroacetamide. After reducing the urea concentration to 1–2 M, proteins were digested with trypsin at 37 °C for 16 h. Subsequently, eluted peptides were desalted using SepPak tC18 µElution plates (Waters), freeze-dried by vacuum centrifugation, and stored at −20 °C.
For LC-MS/MS, dried peptides were reconstituted in 0.1% formic acid and analyzed on a Dionex Ultimate3000 nano HPLC (Thermo Scientific) coupled to an Orbitrap Fusion Tribrid mass spectrometer (Thermo Scientific), which was run in data-dependent mode. […]
Oxidized methionine and N-terminal acetylation were set as variable modification, and cysteine carbamidomethylation was set as fixed modification. Label-free quantification (LFQ) and match-between-runs were enabled. […]
Proteins were filtered by potential contaminants, reversed hits and proteins identified only by site. Residual binding of proteins was calculated from LFQ intensities as the ratio between drug doses and vehicle. […] Only kinases quantified with at least 4 unique peptides in the vehicle experiment were considered. […]

AAK1 = molecular target: T1, AAK1 (Homo sapiens, UniProt Q2M2I8); assay: Kinobeads competition pulldown in AsPC-1 lysate; type: binding
T1 construct: endogenous in cells; host or cells: AsPC-1 lysate
Method: as §1
(§2) For LC-MS/MS, dried peptides were reconstituted in 0.1% formic acid and analyzed on a Dionex Ultimate3000 nano HPLC (Thermo Scientific) coupled to an Orbitrap Fusion Tribrid mass spectrometer (Thermo Scientific), which was run in data-dependent mode. Peptides were first delivered to a trap column (100 µm × 2 cm, packed in-house with Reprosil-Gold C18 ODS-3 5 µm resin, Dr. Maisch, Ammerbuch) and subsequently washed with solvent A0 (0.1% formic acid in HPLC grade water) at 5 µl/min for 10 min. […] For MS2, up to 12 peptide precursors were isolated (isolation width of 1.2 Th) and subjected to HCD fragmentation using 30% normalized collision energy. […] The duration of dynamic exclusion was set to 30 s.
(§3) Oxidized methionine and N-terminal acetylation were set as variable modification, and cysteine carbamidomethylation was set as fixed modification. Label-free quantification (LFQ) and match-between-runs were enabled. All searches were performed with 1% PSM and protein FDR.
(§4) Proteins were filtered by potential contaminants, reversed hits and proteins identified only by site. Residual binding of proteins was calculated from LFQ intensities as the ratio between drug doses and vehicle. […] Only kinases quantified with at least 4 unique peptides in the vehicle experiment were considered. Potential targets were further curated through manual inspection of dose-dependent reduction in MS/MS and unique peptide counts.

BMP2K = molecular target: T2, BMP2K (Homo sapiens, UniProt Q9NSY1); assay: Kinobeads competition pulldown in AsPC-1 lysate; type: binding
T2 construct: endogenous in cells; host or cells: AsPC-1 lysate
Method: as §1, §2, §3, §4

ACVR2 (Homo sapiens) = molecular target: T3, ACVR2 (Homo sapiens); assay: Kinobeads competition pulldown in AsPC-1 lysate; type: binding; details: read-out: KDapp
T3 construct: endogenous in cells; host or cells: AsPC-1 lysate
Method: as §1, §2, §3, §4

ACVR1 = molecular target: T4, ACVR1 (Homo sapiens, UniProt Q04771); assay: Kinobeads competition pulldown in AsPC-1 lysate; type: binding
T4 construct: endogenous in cells; host or cells: AsPC-1 lysate
Method: as §1, §2, §3, §4

CSNK2A2 = molecular target: T5, CSNK2A2 (Homo sapiens, UniProt P19784); assay: Kinobeads competition pulldown in AsPC-1 lysate; type: binding
T5 construct: endogenous in cells; host or cells: AsPC-1 lysate
Method: as §1, §2, §3, §4

GSKB = molecular target: T6, GSKB (Homo sapiens, UniProt P49841); assay: Kinobeads competition pulldown in AsPC-1 lysate; type: binding; details: read-out: KDapp
T6 construct: endogenous in cells; host or cells: AsPC-1 lysate
Method: as §1, §2, §3, §4

GSKA = molecular target: T7, GSKA (Homo sapiens, UniProt P49840); assay: Kinobeads competition pulldown in AsPC-1 lysate; type: binding; details: read-out: KDapp
T7 construct: endogenous in cells; host or cells: AsPC-1 lysate
Method: as §1, §2, §3, §4

PKN3 = test system: PKN3; design: method as in Reinecke et al. (2023); details: PKN3, 5 cell line mix lysate, Kinobeads ε, ref Reinecke et al. (2023), cited from earlier work
ULK1 = test system: ULK1; design: method as in Reinecke et al. (2023); details: ULK1, 5 cell line mix lysate, Kinobeads ε, ref Reinecke et al. (2023), cited from earlier work
CAMK2B = molecular target: CAMK2B; design: method as in Reinecke et al. (2023); details: 5 cell line mix lysate, Kinobeads ε, ref Reinecke et al. (2023), cited from earlier work
IKBKE = details: 5 cell line mix lysate, Kinobeads ε, ref Reinecke et al. (2023), cited from earlier work
PANC-1 cells = assay: Drug combination viability screen (ATPlite, 72 h); type: cell-based, human; design: AUC: unit not given beside the values;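 as to AUC: area under vehicle-normalized viability curve scaled 0 to 100 percent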;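 as to Curve bottom: fraction of vehicle control viability from four-parameter log-logistic fit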
Method: Cell viability was assessed by measuring ATP levels to indicate metabolic activity.
Afterward, small amounts were transferred to 384-well intermediate plates (Greiner Bio-One GmbH, Germany). […] For drug combination screening, 1000 to 5000 cells were seeded into 384-well plates (CulturPlate™, Perkin Elmer, MA, USA) using a Multidrop™ Combi Reagent Dispenser (Thermo Scientific, MA, USA) in 50 µl medium per well 24 h prior to drug treatment (seeding densities see Appendix Table S1). […] The final DMSO concentration in each well was 0.2%. […] Eight wells per plate without library drug served as negative controls, and sixteen wells per plate containing 5 µM Staurosporine served as positive controls. Control plates not containing any drug were used to correct for incubation effects, and data quality was assessed by calculation of Z-prime of positive and negative controls according to1 Z-prime=1−3SDpos+3SDneg/[…] where SD is the standard deviation. […] Dose–response curves from the experimental and hypothetical data were compared, and shifts in AUC were used to describe combination effects (AUC∆ = AUChypothetical − AUCexperimental). […] Only combinations with R^2 > 0.8 in both conditions were considered in the synergy analysis.

[1] = Kinobeads residual binding curve

C[C@@H]1COCCN1c1cc(-c2ccnn2C)c2ccnc(-c3ccn[nH]3)c2n1 [Elimusertib]
EC50 (PIK3C2A): 936 nM
Kd (PIK3C2A; KDapp, AsPC-1 lysate): 426 nM

CNCc1ccc(-c2cc(-c3nc(-c4ccc(S(=O)(=O)C(C)C)cc4)cnc3N)on2)cc1 [Berzosertib]
Kd (AAK1; AsPC-1 lysate, read-out: KDapp): 19.3 nM
EC50 (AAK1; [1]): 36.7 nM
Kd (BMP2K; AsPC-1 lysate, read-out: KDapp): 19.9 nM
EC50 (BMP2K; [1]): 35.7 nM
Kd (ACVR2 (Homo sapiens)): < 1 nM
Kd (ACVR1; AsPC-1 lysate, read-out: KDapp): 0.83 nM
EC50 (ACVR1; [1]): 2.11 nM
Kd (CSNK2A2; AsPC-1 lysate, read-out: KDapp): 219 nM
EC50 (CSNK2A2; [1]): 406 nM

Nc1nn2cc(F)cnc2c1C(=O)Nc1cncc(F)c1N1CCC(C(=O)N2CCN(C3COC3)CC2)CC1 [Gartisertib]
Kd (GSKB): < 10 nM
Kd (GSKA): < 10 nM

COc1cc(N2CCC(N3CCN(C)CC3)CC2)ccc1Nc1ncc(Cl)c(Nc2ccccc2P(C)(C)=O)n1 [Brigatinib]
EC50 (PKN3): 38500 nM
pKDapp (PKN3): 4.41
Kd (PKN3; read-out: KDapp): 38500 nM
EC50 (ULK1): 56.7 nM
pKDapp (ULK1): 7.42
Kd (ULK1; read-out: KDapp): 37.9 nM
Kd (CAMK2B; read-out: KDapp): 48.4 nM
EC50 (CAMK2B): 323 nM
pKDapp (CAMK2B): 7.32
Kd (IKBKE; read-out: KDapp): 2520 nM
EC50 (IKBKE): 4060 nM
pKDapp (IKBKE): 5.60

Nc1ccn([C@@H]2O[C@H](CO)[C@@H](O)C2(F)F)c(=O)n1 [GEM, Gemcitabine]
EC50 (PANC-1 cells; Homo sapiens, PANC-1, read-out: EC50,GEM): ≥ 10 nM
Reponse (PANC-1 cells; PANC-1, R1, 13.72 nM): 5718200
Reponse (PANC-1 cells; PANC-1, R1, 41.15 nM): 4879000
Reponse (PANC-1 cells; PANC-1, R1, 370.37 nM): 4043760
Reponse (PANC-1 cells; PANC-1, R1, 1111.11 nM): 3920600
Reponse (PANC-1 cells; PANC-1, R1, 3333.33 nM): 3788160
Reponse (PANC-1 cells; PANC-1, R1, 10000 nM): 3980640
AUC (PANC-1 cells; PANC-1, GEM curve fit): 85.88
Curve bottom (PANC-1 cells; PANC-1, GEM curve fit): 0.69
Curve effect size (PANC-1 cells; PANC-1, GEM curve fit): 0.31
Curve slope (PANC-1 cells; PANC-1, GEM curve fit): 1.11
Curve top (PANC-1 cells; PANC-1, GEM curve fit): 1.01
Reponse (PANC-1 cells; Panc-1, R2, 41.15 nM): 5844240
Reponse (PANC-1 cells; Panc-1, R2, […] nM): 5369400
Reponse (PANC-1 cells; Panc-1, R2, 370.37 nM): 5134080
Reponse (PANC-1 cells; Panc-1, R2, 1111.11 nM): 4763640
Reponse (PANC-1 cells; Panc-1, R2, 10000 nM): 4614040
Reponse (PANC-1 cells; Panc-1, replicate R2, dose 13.72 nM, raw signal): 6385680
